The values that follow come from ChEMBL document CHEMBL4831553, “Heterocyclic Compounds as Dihydroorotate Dehydrogenase Inhibitors for Treating Acute Myelogenous Leukemia (AML)” (ACS Med Chem Lett, 2021).

The target of assay [1] is Dihydroorotate dehydrogenase (quinone), mitochondrial (Homo sapiens, UniProt Q02127). Nature of the assay: Inhibition of human DHODH using dihydroorotate as substrate and CoQ6 as co-substrate by DCIP dye based spectrophotometry analysis.
The subject of another assay is MOLM-13. Kind of assay: Antiproliferative activity against human MOLM-13 assessed as reduction in cell viability incubated for 72 hrs by Cell titer-Glo assay. Format: functional, cell-based. The settings on record: MOLM-13, 72 h. A general note: Cellular ATP, detected with luciferase, serves as a proxy for viable cell number.

Chain of Dihydroorotate dehydrogenase (quinone), mitochondrial (Q02127 whole entry): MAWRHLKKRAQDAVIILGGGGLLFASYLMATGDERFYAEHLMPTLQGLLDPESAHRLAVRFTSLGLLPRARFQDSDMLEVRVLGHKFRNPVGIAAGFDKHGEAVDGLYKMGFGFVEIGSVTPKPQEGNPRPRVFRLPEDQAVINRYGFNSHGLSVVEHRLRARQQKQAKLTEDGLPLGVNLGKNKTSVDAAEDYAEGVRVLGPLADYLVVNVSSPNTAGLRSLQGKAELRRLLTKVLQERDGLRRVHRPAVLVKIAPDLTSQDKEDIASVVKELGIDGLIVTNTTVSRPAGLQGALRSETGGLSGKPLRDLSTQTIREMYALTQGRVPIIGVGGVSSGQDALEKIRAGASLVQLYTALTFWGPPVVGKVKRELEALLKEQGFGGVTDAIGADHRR

Regarding `CCn1c(CO)nn(-c2nc(O[C@@H](C)C(F)(F)F)c3c(Nc4c(F)cccc4Cl)nncc3c2F)c1=O`, the half-inhibitory concentration (IC50) (in general, the concentration that inhibits the measured activity by half) in assay [1] stood at 0.38 nM; in the assay on MOLM-13, 0.46 nM.

For `CCn1c(CO)nn(-c2cc(O[C@@H](C)C(F)(F)F)c3c(Oc4c(F)ccc(OC)c4Cl)nccc3c2)c1=O`, the IC50 (in assay [1]; with MOLM-13) was 0.3 nM each time.

In the case of `CCn1c(CO)nn(-c2nc(O[C@@H](C)C(F)(F)F)c3c(Oc4c(F)cccc4Cl)nncc3c2F)c1=O`, the IC50 (in assay [1]; with MOLM-13) was 0.2 nM throughout.

In the case of `CCn1c(CO)nn(-c2cc(O[C@@H](C)C(F)(F)F)c3c(Oc4c(F)ccc(OCCOC)c4Cl)nccc3c2)c1=O`, the results for the IC50 (in assay [1]; with MOLM-13) were 0.41 nM and 0.3 nM, respectively.

Regarding `CCn1c(CO)nn(-c2nc(OC(C)C(F)(F)F)c3c(Oc4c(F)cccc4Cl)nccc3c2F)c1=O` (configuration not stated), the figures for the half-maximal inhibitory concentration (IC50) (in assay [1]; in the assay on MOLM-13) were 0.59 nM and 0.4 nM, respectively.

Regarding `CCn1c(CO)nn(-c2cc(O[C@@H](C)C(F)(F)F)c3c(Oc4c(F)ccc(N(C)C)c4Cl)nccc3c2)c1=O`, the IC50 stood at 0.4 nM in assay [1] and 0.3 nM in the assay with MOLM-13.
